Patent publication US7115574B2, “System and method for support legacy operating system booting in a legacy-free system” (priority 2001, dated 2006)
Several values for one entry are separate records, joined by “and”; a condition that tells them apart may be missing. Identical values can stand only once.

Experiments:
[1] = tested on: N9 clone of murine microglial cells; experiment: TNF-α, IL-6 and NO2− production by LPS+IFN-γ activated microglia; assay type: cell-based; settings: for concentration most effective at inhibiting cytokine formation: LPS+IFN-γ stimulated microglia, 1-100 μM tested
Procedure: See Delgado, R., Carlin, A., Alraghi, L., Demitri, M., Meda, L., Galimberti, D., Pierluigi, B., Lipton, J. M., Catania, A., Melanocortin Peptides Inhibit Production of Proinflammatory Cytokines and Nitric Oxide by Activated Microglia, 63 J. of Leukocyte Biol. 740 (1998). […] The N9 clone of murine microglial cells was obtained by immortalization of embryonic brain cultures with the 3RV retrovirus carrying an activated v-myconcogene. N9 cells were cultured in T-75-cm^2 culture flasks (Coming, Cambridge, Mass.) and maintained at 37° C. in a humidified incubator under 5% CO2 atmosphere in RPMI 1640 supplemented with 2 mM L-glutamine, 50 U/mL penicillin G, 50 μg/mL streptomycin sulfate (GIBCO-BBL, Paisley, UK), and 10% heat-inactivated fetal bovine serum (FBS, Hyclone Lab, Inc., Logan, Utah) until experiments were performed. Cells were used between the first and the tenth passage.
Sub-confluent microglial cells were washed twice with phosphate-buffered saline (PBS) and incubated with trypsin 0.025% and ethylenediaminetetraacetate (EDTA) 0.02% without calcium and magnesium for 3 min. at 37° C. to detach the cells from the culture flask. Cells were then resuspended in medium and incubated in 24-well tissue-culture plates at a concentration of 2×10^5 cells/mL for 16 h in a humidified incubator (37° C., 5% CO2). Growth medium was removed and cell monolayers were stimulated with 10 ng/mL lipopolysaccharide (LPS, from Escherichia coli 055:B5, Sigma Chemical Co., St. Louis, Mo.) plus 1 U/ml, murine IFN-γ (Sigma). […] Although production of TNF-α and NO was reduced to even much lower concentrations of the peptides, concentrations in the micromolar range had the most profound and consistent inhibitory effects. […] Cell-free supernatants were harvested after 24 h incubation and assayed for TNF-α, IL-6 and NO2. Viability of cells was assessed by trypan blue exclusion for each experimental condition: it was consistently >98%. Dexamethasone (Sigma) and N-monomethyl-L-arginine (L-NMMA: 100 μM, Cayman Chemical, Ann Arbor, Mich.) were used as positive controls for TNF-α and NO inhibition, respectively. Tests were repeated in at least three independent experiments and assays were performed in triplicate.
TNF-α bioactivity was measured in supernatants of cell cultures by standard cytotoxicity assay using L929 cells and recombinant human TNF-α (Sigma) as standard. The detection limit of the bioassay was 20 pg/mL. IL-6 was measured using a commercial murine enzyme-linked immunosorbent assay (ELISA: RPN 2714, Amersham, Little Chalfont, UK).
NO is rapidly oxidized to nitrite in culture medium, and nitrite (NO2^−) concentration is an indicator of NO production. Cell-free culture supernatants were mixed with equal amounts of Griess reagent (1% sulfanilamide, 0.1% naphtylethylenediamide in 2.5% phosphoric acid) in wells of 96-well ELISA plates. Samples were incubated at room temperature for 10 min and absorbance was measured at 540 nm with the use of a microplate reader. Nitrite […] concentrations were calculated using a sodium nitrite standard curve.
Effects of melanocortin peptides on cytokine and NO production were evaluated by repeated measures analysis of variance followed by Dunnet's test for specific comparisons. Probability values less than 0.05 were considered significant.

[2] = tested on: histamine-induced blue weal formation; experiment: Sparrow/Wilhelm histamine-induced blue weal assay; assay type: in vivo, New Zealand white rabbits; settings: for Result (relative intensity of blue weals, experimental vs control): scored 30 minutes after histamine
Source text: This model relies on the principal that localized, subcutaneous injections of histamine will result in a localized increase in capillary permeability. When the test animal has been pretreated with blue dye intravenously, the localized histamine injections will elicit blue-colored “weals” around the injection site. Thus, by preadministration of an effective anti-inflammatory agent the blue color of the histamine-induced weals will be much less pronounced, with the amount of color reduction being dependent on the relative amount and/or potency of the anti-inflammatory agent used.
Non-moulting New Zealand white rabbits were used for the Sparrow/Wilhelm assay. The skin of the rabbits back was closely clipped 1-2 days previous to the experiment, but not depilated, and the rabbits were kept warm until tested. […] Control rabbits received sham injections. Fifteen minutes following injection of the agent or sham, the rabbits received approximately 30 mg/kg of Pontamine blue dye as a 2.5% solution in 0.45% saline, into an exposed vein. Immediately following dye injections, histamine was injected intradermally in a 0.10 ml volume (1.25 mg histamine 0.1 ml volume) at several sites on each side of the spine. In all, one vertical row of six injections were made on each side of the spine. The relative intensity of the resultant blue weals were scored by an independent observer 30 minutes after histamine injection.

[3] = microglia stimulated with LPS+IFN-γ for 24 hr, micromolar concentrations

Row | Substance | concentration most effective at inhibiting cytokine formation [1] [µM] | Result (relative intensity of blue weals, experimental vs control) ([2]; 0.625 ug/kg protected tripeptide intravenously) | Result (relative intensity of blue weals, experimental vs control) ([2]; 1.25 ug/kg protected tripeptide intravenously) | Result (relative intensity of blue weals, experimental vs control) ([2]; 5 ug/kg protected tripeptide intravenously) | Result (relative intensity of blue weals, experimental vs control) ([2]; 10 ug/kg protected tripeptide intravenously) | lowest intravenous dose giving appreciable reduction in histamine-induced blue weal formation ([2]; rabbits, intravenous) [µg/kg] | reduction of production of IL-6 [1, 3] | reduction of production of NO2^− [1, 3] | reduction of production of TNF-α [1, 3]
1 | Ac-Lys-Pro-Val-NH2 [α-MSH(11-13)] | 1 | No difference | E lighter than C | E lighter than C | E lighter than C | 1.25 | – | – | –
2 | SYSMEHFRWGKPV [α-MSH(1-13)] | 10 | – | – | – | – | – | 31% and 50% | 42% and 40% | 43% and 45%
